Source: PMC4774911, “Biochemical Screening of Five Protein Kinases from Plasmodium falciparum against 14,000 Cell-Active Compounds” (PLoS ONE, 2016)
Like-named read-outs stand apart in the source and are kept apart here.

Experiments:
3D7 PFLDH = tested on: 3D7 PFLDH; design: method as in ChEMBL; conditions: ref ChEMBL; cited from earlier work
P. falciparum DD2 = tested on: P. falciparum DD2; design: method as in ChEMBL; conditions: ref ChEMBL; cited from earlier work
[1] = molecular target: T1, Plasmodium falciparum protein kinase 6 (PK6) (Plasmodium falciparum, UniProt Q8IDW1); test: biochemical
T1 construct: 6-Histidine (N); made in house
T1 sequence (Q8IDW1 1-305): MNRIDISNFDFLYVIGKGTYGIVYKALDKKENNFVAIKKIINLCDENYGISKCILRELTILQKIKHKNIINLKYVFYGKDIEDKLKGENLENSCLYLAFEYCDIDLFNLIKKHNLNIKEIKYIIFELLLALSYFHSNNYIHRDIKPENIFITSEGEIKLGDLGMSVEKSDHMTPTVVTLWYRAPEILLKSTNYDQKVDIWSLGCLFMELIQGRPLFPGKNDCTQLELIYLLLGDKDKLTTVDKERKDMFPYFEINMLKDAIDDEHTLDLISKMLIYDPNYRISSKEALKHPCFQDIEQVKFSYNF

P. falciparum 3D7 cells = conditions: P. falciparum 3D7; ref ChEMBL; cited from earlier work
HepG2 cells = conditions: HepG2 cells; ref ChEMBL; cited from earlier work
[2] = molecular target: T2, Plasmodium falciparum calcium-dependent protein kinase 1 (CDPK1) (Plasmodium falciparum, UniProt P62344); test: CDPK1 Kinase-Glo ATP-consumption screen and dose-response; type: biochemical
T2 construct: 6-Histidine (N); made in house
T2 sequence (P62344 whole entry): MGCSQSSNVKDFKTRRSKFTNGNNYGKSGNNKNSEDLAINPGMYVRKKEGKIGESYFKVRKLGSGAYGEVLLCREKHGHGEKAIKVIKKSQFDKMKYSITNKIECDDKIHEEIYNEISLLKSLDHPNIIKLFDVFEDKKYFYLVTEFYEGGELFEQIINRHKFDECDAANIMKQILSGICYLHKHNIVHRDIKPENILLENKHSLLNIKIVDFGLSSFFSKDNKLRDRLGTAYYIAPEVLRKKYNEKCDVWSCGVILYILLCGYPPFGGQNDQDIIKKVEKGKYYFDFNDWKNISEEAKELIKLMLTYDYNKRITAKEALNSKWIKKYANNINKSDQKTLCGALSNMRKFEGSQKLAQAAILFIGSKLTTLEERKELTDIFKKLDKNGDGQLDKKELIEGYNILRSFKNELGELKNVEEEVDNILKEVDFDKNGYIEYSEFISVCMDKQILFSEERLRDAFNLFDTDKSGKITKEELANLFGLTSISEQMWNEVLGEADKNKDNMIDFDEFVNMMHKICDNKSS
How it was run: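 ATP consumption by recombinant P. falciparum CDPK4 or CDPK1 measured as residual ATP by Kinase-Glo luminescence, with 40 μM Syntide-2 substrate and 90 min incubation stopped with 5 mM EGTA. Single-point screen at 1 μM final, followed by dose-response; no-substrate wells as negative control.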

[3] = hits below 1 uM, read-out: PK6 IC50
[4] = hits below 1 uM, read-out: CDPK1 IC50

SMILES | PCT_INHIB_3D7_PFLDH (3D7 PFLDH) | PCT_INHB_DD2 (P. falciparum DD2) | IC50 [1, 3] [nM] | PCT_IHB_3D7 (P. falciparum 3D7 cells) | pXC50_3D7 (P. falciparum 3D7 cells) | PCT_INHIB_HEPG2 (HepG2 cells) | IC50 [2, 4] [nM] | IC50 [1] [nM] | IC50 [2] [nM]
Br.CC(=O)Nc1nc(C)c(-c2csc(Nc3ccc(Cl)cc3)n2)s1 [TCMDC-123995] | 0 | 93 | 95 | 96 | 6.589 | 14 | – | – | –
CN1CCC(NC(=O)c2cccc(Nc3cc(Nc4cccc(Br)c4)ncn3)c2)CC1 [TCMDC-124773] | 1 | 6 | 602 | 94 | 5.997 | 25 | – | – | –
Cc1cc(Nc2nc(Nc3cccc(Cl)c3)nc3ccccc23)n[nH]1 [TCMDC-134695] | 0 | 95 | 151 | 100 | 6.542 | 9 | – | – | –
C(=N\Nc1nccc2sc(-c3ccccc3)cc12)/c1cccnc1 [TCMDC-135190] | 8 | 10 | 278 | 97 | 6.086 | 0 | – | – | –
COc1ccc(Nc2ncc3c(-c4cccc(NC(=O)Cc5ccc(O)cc5)c4)c[nH]c3n2)cc1OC [TCMDC-135248] | 0 | 99 | 445 | 100 | 6.244 | 48 | 98 | – | –
N=C(N)c1ccc(Nc2nccc(Nc3nc(-c4ccccc4)cs3)n2)cc1.O=C(O)C(F)(F)F [TCMDC-136090] | 0 | 75 | 413 | 96 | 6.122 | 13 | – | – | –
Cl.N=C(N)c1ccc(Nc2nc(Nc3ccc(-c4ccccc4)cc3)ncc2[N+](=O)[O-])cc1 [TCMDC-136145] | 0 | 35 | 164 | 99 | 6.095 | 11 | – | – | –
O=C(Cc1ccc(Nc2nccc(Nc3cccc4[nH]ncc34)n2)cc1)Nc1ccc(C(F)(F)F)cc1 [TCMDC-136243] | 0 | 69 | 167 | 100 | 6.052 | 12 | – | – | –
Cc1ccc(S(=O)(=O)Nc2ccc(Nc3nccc(Nc4cccc5[nH]ncc45)n3)cc2)cc1 [TCMDC-136297] | 6 | 5 | 823 | 90 | 6.019 | 57 | – | – | –
C#CCNC(=O)c1ccc(-c2ccnc(Nc3cccc(CCCN4CCOCC4)c3)n2)s1 [TCMDC-136764] | 0 | 45 | 181 | 82 | 5.998 | 54 | – | – | –
Cn1c(=O)c(-c2c(Cl)cccc2Cl)cc2cnc(Nc3ccc(N4CCOCC4)cc3)nc21 [TCMDC-137156] | 4 | 97 | 145 | 98 | 6.794 | 64 | – | – | –
Cc1ccc(Nc2ccnc(Nc3ccc4c(c3)CS(=O)(=O)C4)n2)cc1O.Cl [TCMDC-138484] | 5 | 76 | 122 | 100 | 6.14 | 82 | 416 | – | –
N#Cc1cnc(Nc2ccc(Oc3ccccc3)cc2)nc1Nc1cccc(S(N)(=O)=O)c1 [TCMDC-138613] | 3 | 86 | 201 | 96 | 6.256 | 74 | – | – | –
CCN(CC)CCNC(=O)c1ccc(Nc2ncc([N+](=O)[O-])c(Nc3ccccc3OC)n2)cc1.Cl [TCMDC-138727] | 0 | 58 | 110 | 97 | 6.841 | 59 | – | – | –
COc1cccc(-n2ncc3c(N/N=C/c4ccc(CN(C)CCN(C)C)cc4)ncnc32)c1 [TCMDC-138728] | 0 | 91 | 58 | 100 | 6.049 | 29 | – | – | –
CN(c1ccc2c(c1)nc(NCc1ccccc1)n2C)c1ccnc(Nc2ccc(CS(C)(=O)=O)cc2)n1.Cl [TCMDC-138740] | 4 | 69 | 464 | 94 | 6.075 | 61 | – | – | –
O=CO.O=S1(=O)NCc2ccc(Nc3nccc(Nc4ccc5c(cnn5Cc5ccccc5)c4)n3)cc21 [TCMDC-138840] | 0 | 33 | 265 | 94 | 6.125 | 0 | 110 | – | –
CCN(CC)CCOc1ccc(Nc2ncc3cc(-c4c(Cl)cccc4Cl)c(=O)n(C)c3n2)cc1 [TCMDC-140940] | 1 | 91 | – | 90 | 5.929 | 72 | – | 350 | 780
Cn1cnc2c(Nc3ccncc3)nc(-c3ccc4c(c3)OCO4)nc21.O=C(O)C(F)(F)F [TCMDC-141274] | 0 | 2 | 500 | 96 | 5.953 | 19 | – | – | –
Cl.Nc1ncnc2occ(-c3ccc(NC(=O)Nc4cc(C(F)(F)F)ccc4F)cc3)c12 [TCMDC-141371] | 0 | 99 | 335 | 99 | 5.765 | 57 | 165 | – | –
Cn1nc(-c2ccc(NC(=O)Nc3ccc4ccccc4c3)c(F)c2)c2cnc(NCCN3CCOCC3)nc21.O=C(O)C(F)(F)F [TCMDC-141561] | 1 | 3 | 860 | 93 | 5.992 | 62 | – | – | –
Cc1ccc(Nc2nccc(Nc3ccc4c(c3)nc(Nc3cc(C(C)(C)C)on3)n4C)n2)cc1S(C)(=O)=O [TCMDC-141889] | 0 | 99 | – | 100 | 6.222 | 30 | 242 | – | –
Cc1ccc(Nc2nc3cc(Nc4ccnc(Nc5cccc(CS(C)(=O)=O)c5)n4)ccc3o2)cc1.O=C(O)C(F)(F)F [TCMDC-141957] | 4 | 81 | 229 | 100 | 6.0348 | 55 | – | – | –
